Reference: publication PMC10892041, “Vanadium Complexes with Thioanilide Derivatives of Amino Acids: Inhibition of Human Phosphatases and Specificity in Various Cell Models of Metabolic Disturbances” (Pharmaceuticals, 2024)
Read-outs that look alike come from different tables or passages of the source.

Columns and labels:
PTP1B [1] = biological target: T1, PTP1B (Homo sapiens, UniProt P18031); experiment: Inhibition of human recombinant tyrosine phosphatase PTP1B (DiFMUP fluorescence); format: biochemical; details: for Inhibition of PTP1B, percentage of inhibition of the control: 1 µM, control solvent only, SD did not exceed 6%; for Log IC50 ± SD PTP1B: logarithm of IC50; for IC50: read-out: IC50 PTP1B
T1 construct: purchased Sigma-Aldrich
T1 sequence (P18031 1-435): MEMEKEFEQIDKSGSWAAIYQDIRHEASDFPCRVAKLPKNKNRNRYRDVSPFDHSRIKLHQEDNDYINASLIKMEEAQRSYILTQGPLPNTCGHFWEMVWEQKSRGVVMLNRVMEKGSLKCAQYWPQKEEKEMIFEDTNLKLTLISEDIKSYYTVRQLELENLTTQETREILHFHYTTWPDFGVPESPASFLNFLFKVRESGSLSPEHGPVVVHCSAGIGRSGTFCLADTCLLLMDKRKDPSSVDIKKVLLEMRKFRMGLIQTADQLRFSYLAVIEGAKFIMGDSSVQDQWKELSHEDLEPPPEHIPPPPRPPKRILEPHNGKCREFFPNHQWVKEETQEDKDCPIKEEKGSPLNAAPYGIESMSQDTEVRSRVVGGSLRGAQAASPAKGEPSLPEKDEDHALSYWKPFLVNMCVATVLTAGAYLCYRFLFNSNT
In short: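 Human recombinant PTP1B (final 50 ng/mL) in buffer of 25 mM MOPS, 50 mM NaCl, 1 mM DTT and 0.05% Tween-20 (pH 7.0) was dispensed onto test compound in black 384-well plates. After 10 min, DiFMUP was added to 0.1 mM. Plates were incubated 20 min at 23 °C and fluorescence read (ex 355, em 560 nm). Assays were run in triplicate, with inhibition relative to enzyme-plus-vehicle control and IC50 fitted in GraphPad Prism.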

LAR = biological target: T2, LAR (Homo sapiens, UniProt P10586); experiment: Inhibition of human recombinant tyrosine phosphatase LAR (DiFMUP fluorescence); format: biochemical; details: for Inhibition of LAR, percentage of inhibition of the control: 1 µM, control solvent only, SD did not exceed 6%
T2 sequence (P10586 1352-1607 limits assumed): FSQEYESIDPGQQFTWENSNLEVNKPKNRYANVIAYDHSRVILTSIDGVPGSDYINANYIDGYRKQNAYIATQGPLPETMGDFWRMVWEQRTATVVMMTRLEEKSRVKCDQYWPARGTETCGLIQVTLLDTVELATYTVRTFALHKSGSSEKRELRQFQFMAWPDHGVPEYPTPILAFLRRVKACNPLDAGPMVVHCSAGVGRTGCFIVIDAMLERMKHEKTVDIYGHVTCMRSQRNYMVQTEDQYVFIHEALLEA
In short: (§1)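 Human recombinant phosphatases (SHP1 400 ng/mL, SHP2 50 ng/mL, LAR 5 ng/mL final) were pre-incubated 10 min with compound in 25 mM MOPS pH 7.0, 50 mM NaCl, 1 mM DTT, 0.05% Tween-20. DiFMUP (0.1 mM final) was added for 20 min at 23 °C and fluorescence read at 355/560 nm. Screening used 1 µM compound (% inhibition vs vehicle); IC50 also reported.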

SHP1 = biological target: T3, SHP1 (Homo sapiens, UniProt P29350); experiment: Inhibition of human recombinant tyrosine phosphatase SHP1 (DiFMUP fluorescence); format: biochemical; details: for Inhibition of SHP1, percentage of inhibition of the control: 1 µM, control solvent only, SD did not exceed 6%; for Log IC50 ± SD SHP1: logarithm of IC50
T3 construct: purchased Sigma-Aldrich
T3 sequence (P29350 whole entry): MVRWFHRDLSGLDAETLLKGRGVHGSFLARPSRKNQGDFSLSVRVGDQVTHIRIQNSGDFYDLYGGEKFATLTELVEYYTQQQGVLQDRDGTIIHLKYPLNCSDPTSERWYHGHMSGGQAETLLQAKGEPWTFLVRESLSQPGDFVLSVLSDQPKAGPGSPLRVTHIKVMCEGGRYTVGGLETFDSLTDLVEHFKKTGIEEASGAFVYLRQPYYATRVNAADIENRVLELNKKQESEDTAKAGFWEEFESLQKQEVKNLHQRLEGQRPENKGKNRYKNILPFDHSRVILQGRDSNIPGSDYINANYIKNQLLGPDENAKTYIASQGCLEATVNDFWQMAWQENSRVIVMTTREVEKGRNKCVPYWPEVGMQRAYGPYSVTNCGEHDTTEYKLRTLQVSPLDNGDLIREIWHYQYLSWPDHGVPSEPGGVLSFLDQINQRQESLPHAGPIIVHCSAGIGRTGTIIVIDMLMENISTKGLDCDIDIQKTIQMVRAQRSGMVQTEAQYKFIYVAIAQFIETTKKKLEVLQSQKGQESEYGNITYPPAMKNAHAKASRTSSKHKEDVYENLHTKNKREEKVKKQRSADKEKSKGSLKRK
In short: as §1

myocytes C2C12 = experiment: Viability of myocytes C2C12 after 24 h incubation (resazurin-based reagent); details: 50 µM; 24 h incubation; control solvent only
adipocytes 3T3-L1 = experiment: Scintillation proximity assay, transport of [14C]-deoxy-D-glucose into adipocytes 3T3-L1; format: cell-based, mouse; details: 50 µM
Procedure: Adipocytes 3T3-L1 cell line (ATCC CRL-11605) derived from fibroblasts from mouse embryo tissue were cultured according to standard protocol in DMEM medium supplemented with 10% bovine calf serum, 100 IU/mL penicillin, and […] streptomycin at 37 °C in 5% CO2. Cells were seeded in 96-well poly-D-lysine-coated plates and cultured to reach confluency.
Scintillation proximity assay (SPA) is a method to measure the real-time accumulation of radiolabeled substrates by adherent cells with no filtration needed. Radioactivity concentrated closer to the scintillator embedded in the plastic bottom of each well provides a stronger signal than the radiolabeled substrate in the culture medium. Uptake of radiolabeled 2-deoxy-D-[U-14C]-glucose was conducted based on previous descriptions.
Adipocytes were washed and the medium was changed to the basal medium. After 24 h incubation, the tested complexes were added. After 2 h incubation at 37 °C in 5% CO2, the medium was changed to DMEM medium without glucose, with 0.1% BSA free from fatty acid, […] L-glutamine, and […] pyruvate. The tested complexes were added again, and further incubation for 4 h was conducted.
For cells proceeded as above, 2-deoxy-D-[U-14C]-glucose (250–350 mCi/mmol, NEC720A, PerkinElmer) solution in KRB with a total activity of 0.03 mCi was added to each well. […] Non-specific radioactivity was subtracted from each result (cpm). Two independent experiments with triplicates were conducted.

hepatocytes HepG2 = experiment: Lipid accumulation in the cell model of NAFLD (oleic acid, AdipoRed); format: cell-based, human; details: 10 µM; 24 h
Procedure: The human hepatocyte HepG2 cell line (ATCC HB-8065) was cultured according to standard protocol in DMEM supplemented with 10% fetal bovine serum, 100 IU/mL penicillin, and […] streptomycin at 37 °C in 5% CO2. Cells were pleated on a 96-well microplate and were used at 18–24 h after seeding.
The induction of hepatic lipid accumulation and studies on the effect of vanadium complexes on this process were carried out based on previous descriptions. […] After 16–24 h, the standard medium was changed for DMEM with 0.1% BSA fatty acid free and 0.5 mM oleic acid as sodium salt and tested compounds were added. Cells were incubated for 24 h, and the intracellular lipid content was evaluated using AdipoRed Adipogenesis Assay Reagent (Lonza) according to the manufacturer’s protocol. Hepatocytes were washed with PBS with calcium and magnesium, and 5 µL AdipoRed Reagent in 200 µL PBS was added, with the mixture incubated for 10 min at 22 °C. Fluorescence signal proportional to lipid content in cells was measured at excitation in 530 nm and emission in 550 nm using a multimodal microplate reader POLARStar Omega (BMG Labtech). The results were normalized to the untreated control (cells with solvent only), wherein the intensity of fluorescence was taken as 100%.

PTP1B [2] = biological target: T1, PTP1B; details: cited from earlier work

Structure (SMILES) | Inhibition of PTP1B, percentage of inhibition of the control (PTP1B [1]) | Log IC50 ± SD PTP1B (PTP1B [1]) | IC50 (PTP1B [1]) | IC50 (LAR) | Inhibition of LAR, percentage of inhibition of the control (LAR) | IC50 (SHP1) | Inhibition of SHP1, percentage of inhibition of the control (SHP1) | Log IC50 ± SD SHP1 (SHP1) | Cell viability of myocytes C2C12, % of the control (myocytes C2C12) | Transport of [14C]-deoxy-D-glucose into 3T3-L1 adipocytes, % of control (adipocytes 3T3-L1) | Lipid accumulation in hepatocytes after steatosis induction with oleic acid, % of control (hepatocytes HepG2) | IC50 (PTP1B [2]; lower end of published range) | IC50 (PTP1B [2]; upper end of published range)
Cc1occc(=O)c1[O-].Cc1occc(=O)c1[O-].[O]=[V+2] [BMOV, bis(maltolato)oxidovanadium(IV), reference compound] | 77% | −6.83 ± 0.02 | 149 nM | 140 nM | 58% | 14 nM | 76% | −7.86 ± 0.03 | 90 ± 4% | low activity | did not have any significant effect | – | –
O=S(=O)([O-])[O-].[O]=[V+2] [VOSO4, reference compound] | 62% | −7.00 ± 0.07 | 99 nM | 95 nM | 44% | 17 nM | 70% | −7.77 ± 0.02 | – | low activity | did not have any significant effect | 18 nM | 380 nM
